The text below walks through data of patent US20050100983A1, “Cell-free methods for identifying compounds that affect toll-like receptor 9 (TLR9) signaling” (Coley Pharmaceutical GmbH, priority 2003, published 2005).

Where a chain is given by its changes, count along the chain named.

Data set [1] deals with T1, mTLR9ect (extracellular domain of murine TLR9 fused to human IgG1-Fc) (Mus musculus, UniProt Q9EQU3).
T1 construct: mTLR9ect (aa 1-816); made in house
T1 sequence (Q9EQU3 26-816): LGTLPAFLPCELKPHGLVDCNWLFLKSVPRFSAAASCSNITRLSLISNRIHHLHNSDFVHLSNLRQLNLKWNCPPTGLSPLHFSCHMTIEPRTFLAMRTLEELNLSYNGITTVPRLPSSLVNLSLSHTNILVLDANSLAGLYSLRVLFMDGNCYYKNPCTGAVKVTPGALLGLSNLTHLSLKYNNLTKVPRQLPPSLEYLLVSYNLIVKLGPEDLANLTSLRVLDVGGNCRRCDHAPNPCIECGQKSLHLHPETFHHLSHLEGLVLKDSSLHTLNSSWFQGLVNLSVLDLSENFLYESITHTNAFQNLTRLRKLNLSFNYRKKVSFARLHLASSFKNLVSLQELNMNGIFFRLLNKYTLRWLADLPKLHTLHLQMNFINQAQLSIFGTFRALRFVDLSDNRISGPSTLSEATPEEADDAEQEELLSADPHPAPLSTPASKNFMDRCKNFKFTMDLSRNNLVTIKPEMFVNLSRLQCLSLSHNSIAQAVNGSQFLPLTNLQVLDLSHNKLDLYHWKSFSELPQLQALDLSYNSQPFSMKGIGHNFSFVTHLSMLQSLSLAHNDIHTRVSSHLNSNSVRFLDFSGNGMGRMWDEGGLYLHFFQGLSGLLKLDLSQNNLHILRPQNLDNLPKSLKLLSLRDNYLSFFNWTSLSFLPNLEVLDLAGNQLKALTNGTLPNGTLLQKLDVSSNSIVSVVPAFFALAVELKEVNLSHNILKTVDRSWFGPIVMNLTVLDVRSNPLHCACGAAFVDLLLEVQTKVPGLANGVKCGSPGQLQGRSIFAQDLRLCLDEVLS
The experiment in a line: SPR biosensor analysis of mTLR9ect binding to immobilized CpG-DNA. Conditions: pH 7.4. In general terms: SPR reads the build-up and loss of mass on a sensor chip optically.

The target of data set [2] is T2, mTLR9ect-mut (D535→A and Y537→A) (Mus musculus, UniProt Q9EQU3, D535A/Y537A).
T2 construct: mTLR9ect-mut (see below) (aa 1-816); made in house
T2 sequence (Q9EQU3 26-816 D535A/Y537A): T1 sequence (Q9EQU3 26-816) with D510A, Y512A
The experiment in a line: SPR biosensor analysis of double mutated mTLR9ect-mut on CpG-DNA. The class given is binding, murine. Conditions: 200 nM protein, compared to wild-type mTLR9ect. On the procedure: FIG. 3B is a graph depicting SPR biosensor analysis of wild-type and double mutated mTLR9ect (mTLR9ect-mut, D535→A and Y537→A). Proteins were injected at 200 nM on sensor chips with immobilized CpG- and non-CpG-DNA and the sensorgrams recorded.
Mutation. For mutation of wild-type mTLR9 amino acids D535 and Y537 to two alanines, the primers 5′-[…]-3′ (SEQ ID NO:5) and 5′-[…]-3′ (SEQ ID NO:6) were used to generate mTLR9-mut. A site-specific-mutagenesis kit from Stratagene (Amsterdam, Netherlands) was applied according to the manufacturer's protocol. All PCR fragments were sequenced and found error-free.
SPR biosensor analysis. Real-time binding of TLR9 or TLR2 was measured by surface plasmon resonance biosensor technology using the BiaCore X system (Uppsala, Sweden). For analysis of TLR9 and TLR2 interaction, biotinylated CpG-DNA and non-CpG-DNA, or biotinylated Pam3CysK4 and PHCK4, respectively, were loaded in running buffer (50 mM MES, 150 mM NaCl, 1 mM MgCl2 at pH 6.5) on SA chips precoated with streptavidin (Biacore AB, Uppsala, Sweden). Non-CpG-DNA or PHCK4 (Wiesmuller K H et al. (1989) Vaccine 7:29-33) served as reference for CpG-DNA and Pam3CysK4 interaction (structure or sequence in Table 1). […] Binding was measured at 25° C. for 750 s (delay time 300 s). […] Sensorgrams were recorded and kinetic data were calculated by the BiaCore Evaluation program (Biacore, version 3.0.1). […]

As to “5′-TCCATGACGTTCCTGATGCT-3′ (chemistry not given here) [CpG-DNA 1668, synthetic CpG oligodeoxynucleotide, TLR9 ligand]”, in data set [1], the “TLR9 binding to CpG-DNA” value is “weak” and the “dissociation of TLR9 from CpG-DNA” value is “fairly rapidly”. Also, the “binding of mTLR9ect-mut to CpG-DNA” value in data set [2] is given as “bound only weakly”.
